In patent US10472347B2, “Aminopyrazine compounds with A2A antagonist properties” (Merck Sharp & Dohme Corp., priority 2014, dated 2019):

These compounds were tested against T1, human A2a receptor (Homo sapiens, UniProt P29274) (assay: A2a competition binding assay, Scintillation Proximity technology). Conditions: membranes from HEK293 cells expressing human A2a receptor; 0.5 nM tritiated ligand.
T1 construct: purchased Perkin-Elmer RBHA2AM400UA; host or cells: HEK293 cells (membranes)
T1 sequence (P29274 whole entry): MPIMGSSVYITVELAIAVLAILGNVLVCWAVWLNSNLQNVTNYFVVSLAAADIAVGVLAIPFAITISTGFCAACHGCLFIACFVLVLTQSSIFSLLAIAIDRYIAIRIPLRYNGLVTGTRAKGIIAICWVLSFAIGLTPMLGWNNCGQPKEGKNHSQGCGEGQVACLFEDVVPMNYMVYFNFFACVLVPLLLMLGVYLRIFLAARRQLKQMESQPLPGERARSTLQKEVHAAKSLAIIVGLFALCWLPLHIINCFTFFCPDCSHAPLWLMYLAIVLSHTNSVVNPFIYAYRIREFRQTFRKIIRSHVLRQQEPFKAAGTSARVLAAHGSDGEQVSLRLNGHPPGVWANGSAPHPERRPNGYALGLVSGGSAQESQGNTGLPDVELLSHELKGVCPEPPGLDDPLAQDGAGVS
Protocol: Binding affinities of compounds of the invention for the human A2a receptor were determined in a competition binding assay using Scintillation Proximity technology. Thus, […] from HEK293 cells expressing the human A2a receptor were incubated with a compound of the invention at concentrations ranging from 3000 nM to 0.15 nM in a reaction mixture containing also 0.5 nM of a tritiated form of 5-amino-7-[2-phenethyl]-2-(furan-2-yl)-7H-pyrazolo[4,3-e][1,2,4]triazolo[1,5-c]pyrimidine (the tritiated compound) and 100 μg of wheat germ agglutin-coated yttrium silicate SPA beads for one hour at room temperature with agitation. The beads were then allowed to settle to the bottom of the wells for 1 hr, after which the membrane-associated radioactivity was determined by scintillation counting in a TopCount microplate reader. Ki values were determined using the Cheng-Prusoff equation.
HEK293 cells expressing the human, rat, dog or monkey adenosine 2a receptor (Purchased from Perkin-Elmer # RBHA2AM400UA).
The Tritiated compound was prepared in-house by MRL Radiochemistry according to published methods.
Wheat germ agglutinin-coated yttrium silicate SPA beads (GE Healthcare #RPNQ0023). Dilute to 25 mg/ml in assay buffer.
Assay Buffer was prepared in house: Dulbecco's calcium and magnesium free phosphate buffered saline+10 mM MgCl2
Adenosine deaminase from calf intestine, 10 mg/2 ml (Roche #10 102 105 001).
A2a antagonist standard (9-chloro-1-(2-furanyl)-[1,2,4]triazolo1,5-c]quinazolin-5-amine from Tocris Bioscience)
Make eight 1:3 serial dilutions in 100% DMSO from a 3 mM compound stock
Transfer 50 nl of compound into a 384-well OptiPlate (Perkin Elmer).
Typically, final concentrations of compound used in the assay ranged from 3000 nM to 0.152 nM.
Dilute a solution of the Tritiated compound to 1.25 nM in assay buffer. This is a 2.5× solution. The final concentration in the assay is 0.5 nM. Calculate the concentration by counting two 5 μl aliquots.
Use 0.25 ug of membrane/well. Dilute membranes to 9.7 μg/ml in assay buffer. Treat with 20 ug/ml adenosine deaminase (ADA) for 15 minutes at room temperature to degrade endogenous adenosine.
Use 100 μg/well wheat germ agglutinin-coated yttrium silicate SPA beads.
Mix ADA-treated membranes and SPA beads together for 30 min prior to assay.
To the Perkin-Elmer Optiplate-384 containing the compound titration add 20 μl of 2.5× solution of the Tritiated compound and 30 μl of the membrane-bead mixture. Incubate for one hour at room temperature with agitation.
Include total binding (assay buffer+1% DMSO) and non-specific binding (CGS15943, 1 μM) wells.
Allow the beads to settle for one hour.
A curve fitting program (i.e., Prism, Activity Base, Chemcart) is used to determine the EC50. The Ki value is calculated using the Cheng-Prusoff equation. Ki=EC50/(1+(radioligand concentration/Kd))
With Cc1cccnc1CNC(=O)c1nc(C)c(-c2ncco2)nc1N [Ex-3, 3-amino-6-methyl-N-((3-methylpyridin-2-yl)methyl)-5-(oxazol-2-yl)pyrazine-2-carboxamide] the EC50 was 3.4 nM.

Same assay, conditions: membranes from HEK293 cells expressing human A2a receptor; Ki by Cheng-Prusoff equation
Work on C#C[C@H]1CCC[C@@H]1NC(=O)c1nc(C)c(-c2ncco2)nc1N [Ex-209, 3-amino-N-[(1S,2R)-2-ethynylcyclopentyl]-6-methyl-5-(1,3-oxazol-2-yl)pyrazine-2-carboxamide] yielded a Ki of 2.97 nM. CCC(NC(=O)c1nc(C)c(-c2ncco2)nc1N)c1ccccn1 (single isomer, unassigned) [Ex-94A, 3-amino-6-methyl-5-(1,3-oxazol-2-yl)-N-(1-pyridin-2-ylpropyl)pyrazine-2-carboxamide] gave a Ki of 8.7 nM. Cc1cnc(F)c(CNC(=O)c2nc(C)c(-c3ncco3)nc2N)c1 [Ex-73, 3-amino-N-[(2-fluoro-5-methylpyridin-3-yl)methyl]-6-methyl-5-(1,3-oxazol-2-yl)pyrazine-2-carboxamide] gave a Ki of 4.64 nM. For COc1ccc2c(c1)CCC2NC(=O)c1nc(C)c(-c2ncco2)nc1N (single isomer, unassigned) [Ex-231B, 3-amino-N-(5-methoxy-2,3-dihydro-1H-inden-1-yl)-6-methyl-5-(1,3-oxazol-2-yl)pyrazine-2-carboxamide], the Ki was 10.5 nM. Work on Cc1nc(C(=O)NC2CCC(F)(F)CC2)c(N)nc1-c1ncco1 [Ex-83, 3-amino-N-(4,4-difluorocyclohexyl)-6-methyl-5-(1,3-oxazol-2-yl)pyrazine-2-carboxamide] yielded a Ki of 3.18 nM. Cc1nc(C(=O)NCc2cccn(CC(F)F)c2=O)c(N)nc1-c1ncco1 [Ex-91, 3-amino-N-{[1-(2,2-difluoroethyl)-2-oxo-1,2-dihydropyridin-3-yl]methyl}-6-methyl-5-(1,3-oxazol-2-yl)pyrazine-2-carboxamide] showed a Ki of 2.93 nM. In the case of Cc1nc(C(=O)NCc2ccccc2F)c(N)nc1-c1ncco1 [Ex-30, 3-amino-N-(2-fluorobenzyl)-6-methyl-5-(1,3-oxazol-2-yl)pyrazine-2-carboxamide], the Ki is reported as 0.314 nM. For Cc1cnn(-c2nc(N)c(C(=O)NCc3cccc4[nH]ccc34)nc2Cl)c1 [Ex-353, 3-amino-6-chloro-N-(1H-indol-4-ylmethyl)-5-(4-methyl-1H-pyrazol-1-yl)pyrazine-2-carboxamide], the Ki was 49 nM. Nc1nc(-n2cccn2)c(Cl)nc1C(=O)N[C@@H]1CCc2ccccc21 [Ex-333, 3-amino-6-chloro-N-[(1R)-2,3-dihydro-1H-inden-1-yl]-5-(1H-pyrazol-1-yl)pyrazine-2-carboxamide] gave a Ki of 57.9 nM. In the case of Nc1cccc(F)c1CNC(=O)c1nc(Cl)c(-n2nccn2)nc1N [Ex-304, 3-amino-N-(2-amino-6-fluorobenzyl)-6-chloro-5-(2H-1,2,3-triazol-2-yl)pyrazine-2-carboxamide], the Ki is reported as 3.6 nM. Work on Cc1nc(C(=O)NCc2cccc3cccnc23)c(N)nc1-n1nccn1 [Ex-275, 3-amino-6-methyl-N-(quinolin-8-ylmethyl)-5-(2H-1,2,3-triazol-2-yl)pyrazine-2-carboxamide] yielded a Ki of 2.1 nM. In the case of Nc1nc(-n2nccn2)c(Cl)nc1C(=O)NCc1cccc2nccnc12 [Ex-300, 3-amino-6-chloro-N-(quinoxalin-5-ylmethyl)-5-(2H-1,2,3-triazol-2-yl)pyrazine-2-carboxamide], the Ki is reported as 44.4 nM. Cc1nccnc1CNC(=O)c1nc(C)c(-c2ncco2)nc1N [Ex-195, 3-amino-6-methyl-N-[(3-methylpyrazin-2-yl)methyl]-5-(1,3-oxazol-2-yl)pyrazine-2-carboxamide] was tested, and the Ki was 1.71 nM. Work on Cc1ccn(-c2nc(N)c(C(=O)N[C@@H]3CCc4ccccc43)nc2Cl)n1 [Ex-339, 3-amino-6-chloro-N-[(1R)-2,3-dihydro-1H-inden-1-yl]-5-(3-methyl-1H-pyrazol-1-yl)pyrazine-2-carboxamide] yielded a Ki of 117 nM. For Cc1cccc(CNC(=O)c2nc(Cl)c(-n3nccn3)nc2N)n1 [Ex-326, 3-amino-6-chloro-N-[(6-methylpyridin-2-yl)methyl]-5-(2H-1,2,3-triazol-2-yl)pyrazine-2-carboxamide], the Ki was 6.1 nM. Nc1nc(-n2nccn2)c(Cl)nc1C(=O)N1CCc2cccc(Br)c2C1 [Ex-292, 3-[(8-bromo-3,4-dihydroisoquinolin-2(1H)-yl)carbonyl]-5-chloro-6-(2H-1,2,3-triazol-2-yl)pyrazin-2-amine] gave a Ki of 54.8 nM. Cc1nc(C(=O)N[C@H]2CC[C@@H](C(F)(F)F)CC2)c(N)nc1-c1ncco1 [Ex-101, 3-amino-6-methyl-5-(1,3-oxazol-2-yl)-N-[cis-4-(trifluoromethyl)cyclohexyl] pyrazine-2-carboxamide] gave a Ki of 12.9 nM. Nc1nc(-n2nccn2)c(Cl)nc1C(=O)NCc1ccccc1Br [Ex-288, 3-amino-N-(2-bromobenzyl)-6-chloro-5-(2H-1,2,3-triazol-2-yl)pyrazine-2-carboxamide] was tested, and the Ki was 1.9 nM. In the case of Cc1nc(C(=O)NCc2cccc3c2ccn3CC(F)F)c(N)nc1-c1ncco1 [Ex-217, 3-amino-N-{[1-(2,2-difluoroethyl)-1H-indol-4-yl]methyl}-6-methyl-5-(1,3-oxazol-2-yl)pyrazine-2-carboxamide], the Ki is reported as 1.4 nM. Cc1cccnc1CNC(=O)c1nc(C)c(-c2cnco2)nc1N [Ex-252, 3-amino-6-methyl-N-[(3-methylpyridin-2-yl)methyl]-5-(1,3-oxazol-5-yl)pyrazine-2-carboxamide] was tested, and the Ki was 1.81 nM. Compound Cc1nc(C(=O)NCc2nn(C)c3c2CCC3)c(N)nc1-c1ncco1 [Ex-174, 3-amino-6-methyl-N-[(1-methyl-1,4,5,6-tetrahydrocyclopenta[c]pyrazol-3-yl)methyl]-5-(1,3-oxazol-2-yl)pyrazine-2-carboxamide] has a Ki of 2.96 nM. Cc1nc(C(=O)NCc2ncc[nH]2)c(N)nc1-c1ncco1 [Ex-16, 3-amino-N-(1H-imidazol-2-ylmethyl)-6-methyl-5-(1,3-oxazol-2-yl)pyrazine-2-carboxamide] was tested, and the Ki was 5.14 nM. Compound Cc1nc(C(=O)NCc2nccc3ccccc23)c(N)nc1-c1ncco1 [Ex-178, 3-amino-N-(isoquinolin-1-ylmethyl)-6-methyl-5-(1,3-oxazol-2-yl)pyrazine-2-carboxamide] has a Ki of 0.217 nM. Compound Cc1nc(C(=O)NC2CCCc3cccnc32)c(N)nc1-c1ncco1 (single isomer, unassigned) [Ex-230B, 3-amino-6-methyl-5-(1,3-oxazol-2-yl)-N-(5,6,7,8-tetrahydroquinolin-8-yl)pyrazine-2-carboxamide] has a Ki of 0.762 nM. With CCOC(=O)c1nc(C)c(-n2nccn2)nc1N [Ex-276, ethyl 3-amino-6-methyl-5-(2H-1,2,3-triazol-2-yl)pyrazine-2-carboxylate] the Ki was 408 nM. COc1cccc(F)c1CNC(=O)c1nc(C)c(-c2ncco2)nc1N [Ex-186, 3-amino-N-(2-fluoro-6-methoxybenzyl)-6-methyl-5-(1,3-oxazol-2-yl)pyrazine-2-carboxamide] showed a Ki of 0.181 nM. Compound CCc1cccnc1CNC(=O)c1nc(C)c(-c2ncco2)nc1N [Ex-179, 3-amino-N-[(3-ethylpyridin-2-yl)methyl]-6-methyl-5-(1,3-oxazol-2-yl)pyrazine-2-carboxamide] has a Ki of 0.1 nM. For Cc1nc(C(=O)N[C@@H]2COc3ccccc32)c(N)nc1-c1ncco1 [Ex-157, 3-amino-N-[(3S)-2,3-dihydro-1-benzofuran-3-yl]-6-methyl-5-(1,3-oxazol-2-yl)pyrazine-2-carboxamide], the Ki was 0.601 nM. For Cc1nc(C(=O)NC(C)c2ccccn2)c(N)nc1-c1ncco1 (single isomer, unassigned) [Ex-82B, 3-amino-6-methyl-5-(1,3-oxazol-2-yl)-N-(1-pyridin-2-ylethyl)pyrazine-2-carboxamide], the Ki was 43.5 nM. Cc1nc(C(=O)NCc2cnco2)c(N)nc1-c1ncco1 [Ex-39, 3-amino-6-methyl-5-(1,3-oxazol-2-yl)-N-(1,3-oxazol-5-ylmethyl)pyrazine-2-carboxamide] was tested, and the Ki was 33.9 nM. Work on Cc1nc(C(=O)NCc2ccc(C(F)(F)F)cn2)c(N)nc1-c1ncco1 [Ex-59, 3-amino-6-methyl-5-(1,3-oxazol-2-yl)-N-{[5-(trifluoromethyl)pyridin-2-yl]methyl}pyrazine-2-carboxamide] yielded a Ki of 14.8 nM. Cc1nc(C(=O)NCc2ccc(F)cc2)c(N)nc1-c1ncco1 [Ex-32, 3-amino-N-(4-fluorobenzyl)-6-methyl-5-(1,3-oxazol-2-yl)pyrazine-2-carboxamide] was tested, and the Ki was 1.5 nM.
